# Measurements as given in US20210030022A1, “NOVEL USE OF SUBSTITUTED CHROMAN-6-OLS” (DSM IP ASSETS B.V., priority 2018, published 2021).
# Entries after “also recorded” stand apart in the source; their conditions may differ.
# Legend:
# [1] = Oxipres antioxidant efficacy value (EV) in fish meal; conditions: Oxipres 70° C., 5 bar O2, equimolar to BHT; EV relative to BHT (EV=1)
# Method: (§1) Oxidative stability was assessed using an Oxipres (Mikrolab Aarhus A/S, Hojbjerg, Denmark). The ML OXIPRES® is designed to monitor the oxidation of heterogeneous products. Consumption of oxygen results in a pressure drop which is measured by means of pressure transducers. The samples are heated to accelerate the process and shorten the analysis time (Mikrolab Aarhus 2012).
# (§2) Sample weights were 50 g. They were loaded into the Oxipres vessels and placed inside the stainless-steel pressure vessel and sealed. The pressure vessels were purged with pure oxygen and filled to an initial oxygen pressure of 5 bar and maintained at 70° C. during measurement (D. Ying, L. Edin, L. Cheng, L. Sanguansri, M. A. Augustin, LWT—Food Science and Technology 2015, 62, 1105-1111: “Enhanced oxidative stability of extruded product containing polyunsaturated oils.”).
# (§3) The oxygen pressure was recorded as function of time. After sample load and temperature rise the pressure in the device is increasing within 10 hours up to the starting pressure. Thereafter it is decreasing. Consequently, the starting pressure is considered as being the pressure after 10 hours. The analysis ends after 130 hours at 70° C. The oxygen consumption ‘O2’ of the tested sample is calculated as follows: […]
# (§4) A factor of protection called ‘EV’ (Efficacy Value) was developed to quantify with a relative number (relative to BHT) the antioxidant effect of the tested candidates. EV was calculated as follows:
# (§5) EV, being relative to BHT (3,5-di-tert-butyl-4-hydroxy-toluene) (EV=1), makes it possible to compare the antioxidant compounds in a defined feed application.
# (§6) Each of the compounds of formulae (1) to (6) were mixed into each matrix 1, 2 or 3 (pet food, poultry meal, fish meal) in an equimolar ratio compared to BHT. Batches of 200 g feed were produced in order to handle a minimum of 30 mg of antioxidant. First, a 1% pre-dilution of the antioxidant with the feed material was made. Then this pre-dilution was added to the final batch, mixed, sieved (1.25 mm sieve) and mixed using a turbula mixer. Thereafter 55 g of the final batch were packed into polyethylene bags, and stored at 4° C. until start of the Oxipres assay. Spare sample were stored at 4° C. Compound of formula (3) was measured in all three matrices. Compound of formula (1) was measured in matrix 1 and 2. Compound of formula (2) was measured in matrix 2. Compounds of formulae (4), (5) and (6) were measured in matrix 3. An efficacy value 0.7 has been considered as acceptable, an efficacy value ≥ the efficacy value of alpha-tocopherol as good, and an efficacy value ≥ the efficacy value of BHT as very good.
# [2] = Oxipres antioxidant efficacy value (EV) in pet food; conditions: Oxipres 70° C., 5 bar O2, equimolar to BHT; EV relative to BHT (EV=1)
# Method: as §1, §2, §3, §4, §5, §6
# [3] = Oxipres antioxidant efficacy value (EV) in poultry meal; conditions: Oxipres 70° C., 5 bar O2, equimolar to BHT; EV relative to BHT (EV=1)
# Method: as §1, §2, §3, §4, §5, §6
# [4] = Oil Stability Index (OSI) in fish oil, Example 13; conditions: for OSI: Table 28, FG30TG fish oil, 80° C.; for Protection Factor (%): Table 34, fish oil (80° C.)
# Method: The compounds of formulae (3) and (7) were used in both fish and algal oils to see their antioxidant effect in these oils. Antioxidant effect was determined using mainly the Oil Stability Index (OSI). Two concentration levels were used: 0.5 mg/g (low level) and 2 mg/g (high level), respectively, have been added to 5 g of oil and used in the Oxidative Stability Instrument operated at 80° C. with the continuous air flow rate at ˜40 psi. All samples were run in duplicate. The Protection Factors (PF) for each compound, as percentage, in oil were calculated as, [formula]
# [5] = Oil Stability Index (OSI) in crude algal oil, Example 13; conditions: for OSI: Table 33, crude algal oil (contained about 1.6 mg/g MNT prior to use), 80° C.; for Protection Factor (%): Table 35, crude algal oil (80° C.)
# Method: The compounds of formulae (3) and (7) were used in both fish and algal oils to see their antioxidant effect in these oils. Antioxidant effect was determined using mainly the Oil Stability Index (OSI).
# Two concentration levels were used: 0.5 mg/g (low level) and 2 mg/g (high level), respectively, have been added to 5 g of oil and used in the Oxidative Stability Instrument operated at 80° C. with the continuous air flow rate at ˜40 psi. All samples were run in duplicate. The Protection Factors (PF) for each compound, as percentage, in oil were calculated as,
# The Oil Stability Indices (OSI) of crude algal oil with levels of 0.5 mg/g and 2 mg/g of compounds of formulae (3) or (7) are shown in Table 33.
# [6] = Solubility in fish oil; format: physicochemical; conditions: fish oil, 0.5 and 2 mg/g; mixed around 40° C. to dissolve completely
# Method: The compounds of formulae (4), (6), (8) and (9) were evaluated primarily for their oxidative stability by the Oil Stability Index (OSI) measurements. Two different levels of these antioxidants (0.5 and 2 mg/g) were used in 5 g of natural fish oil (Product code: FG30TG) and used in the Oxidative Stability Instrument at 80° C. with the air flow rate of 40 psi. The solubility of different amounts and types of antioxidants used in OSI was checked before and after the application. […]
# [7] = Storage stability in fish oil (PV, p-AV), Example 13; conditions: for Peroxide values (PV, meq/kg) / p-Anisidine value (p-AV): storage at 25° C.
# Method: A storage stability study was performed to compare the variation of primary oxidation products, the hydroperoxides, generated during oxidation, measured in terms of peroxide value (PV) and the secondary oxidation products which were measured and determined as anisidine reactive substances or p-anisidine value (p-AV) of oil samples containing these compounds.
# The two different concentrations of compounds of formulae (3) and (7) were used for the storage stability study. Each compound and MNT were added, each individually, to 40 g of fish oil samples in 60 ml amber bottles at 0.5 mg/g and 2 mg/g levels, thoroughly mixed and stored at ambient temperature for 19 days. All sample bottles were stored open to air, away from light. […] Peroxide values (PV) and p-anisidine values (p-AV) were determined at different times for 19 days.
compound,measurement,setting,value
"Cc1cc(C(C)(C)C)c(O)c(C(C)(C)C)c1 [BHT, 3,5-di-tert-butyl-4-hydroxy-toluene, reference compound]",EV in Fish meal,[1],1
same,EV in pet food,[2],1
same,EV in poultry meal,[3],1
"Oc1ccc2c(c1)CCCO2 [Compound of formula (1), chroman-6-ol]",EV in pet food,[2],0.98
same,EV in poultry meal,[3],1.12
"CC1(C)CCc2cc(O)ccc2O1 [Compound of formula (3), 2,2-dimethyl-chroman-6-ol]",OSI,[4]; 0.5 mg/g,7.13 h
same,OSI,[4]; 2 mg/g,7.48 h
same,Protection Factor (%),[4]; 0.5 mg/g,42.5%
same,Protection Factor (%),[4]; 2 mg/g,49.5%
same,antioxidant activity (OSI) in fish oil compared with MNT,"[4]; fish oil, Example 13, 0.5 and 2 mg/g",slightly higher Oil Stability Indices than those of MNT; also recorded: comparable in activity with MNT
same,OSI,[5]; 0.5 mg/g,17.05 h
same,OSI,[5]; 2 mg/g,18.63 h
same,Protection Factor (%),[5]; 0.5 mg/g,13.7%
same,Protection Factor (%),[5]; 2 mg/g,24.2%
same,EV in Fish meal,[1],0.96
same,Solubility in oil,[6],not readily soluble in oil
same,EV in pet food,[2],0.95
same,EV in poultry meal,[3],1.17
same,level of secondary oxidation products (p-AV) during storage,[7]; 0.5 mg/g concentration,lowest level of secondary oxidation products (p-AV)
same,"Peroxide values (PV, meq/kg)","[7]; 0.5 mg/g level, 1 day",1 meq/kg
same,p-Anisidine value (p-AV),"[7]; 0.5 mg/g level, 1 day",9.5
same,"Peroxide values (PV, meq/kg)","[7]; 0.5 mg/g level, 5 days",2 meq/kg
same,p-Anisidine value (p-AV),"[7]; 0.5 mg/g level, 5 days",9.5
same,"Peroxide values (PV, meq/kg)","[7]; 0.5 mg/g level, 8 days",6.4 meq/kg
same,p-Anisidine value (p-AV),"[7]; 0.5 mg/g level, 8 days",11.2
same,"Peroxide values (PV, meq/kg)","[7]; 0.5 mg/g level, 14 days",12.8 meq/kg
same,p-Anisidine value (p-AV),"[7]; 0.5 mg/g level, 14 days",11.4
same,"Peroxide values (PV, meq/kg)","[7]; 0.5 mg/g level, 19 days",20.9 meq/kg
same,p-Anisidine value (p-AV),"[7]; 0.5 mg/g level, 19 days",12.8
same,"Peroxide values (PV, meq/kg)","[7]; 0.5 mg/g level, Initial",1 meq/kg
same,p-Anisidine value (p-AV),"[7]; 0.5 mg/g level, Initial",9.4
same,"Peroxide values (PV, meq/kg)","[7]; 2 mg/g level, 1 day",1 meq/kg
same,p-Anisidine value (p-AV),"[7]; 2 mg/g level, 1 day",9.4
same,"Peroxide values (PV, meq/kg)","[7]; 2 mg/g level, 5 days",1.9 meq/kg
same,p-Anisidine value (p-AV),"[7]; 2 mg/g level, 5 days",9.3
same,"Peroxide values (PV, meq/kg)","[7]; 2 mg/g level, 8 days",6.4 meq/kg
same,p-Anisidine value (p-AV),"[7]; 2 mg/g level, 8 days",10.8
same,"Peroxide values (PV, meq/kg)","[7]; 2 mg/g level, 14 days",14.1 meq/kg
same,p-Anisidine value (p-AV),"[7]; 2 mg/g level, 14 days",11.2
same,"Peroxide values (PV, meq/kg)","[7]; 2 mg/g level, 19 days",26.8 meq/kg
same,p-Anisidine value (p-AV),"[7]; 2 mg/g level, 19 days",11.8
same,"Peroxide values (PV, meq/kg)","[7]; 2 mg/g level, Initial",1 meq/kg
same,p-Anisidine value (p-AV),"[7]; 2 mg/g level, Initial",9.4
"Cc1c(C)c2c(c(C)c1O)CC[C@@](C)(CCC[C@H](C)CCC[C@H](C)CCCC(C)C)O2 [alpha-tocopherol, reference compound]",EV in Fish meal,[1],0.88
same,EV in pet food,[2],0.77
same,EV in poultry meal,[3],0.74
